Data reported in the supplement of paper PMC13380429.

Key:
Settings in all cases: 72 h
Caco-2 [1] = test: drug sensitivity score (DSS) for viability; higher = more toxic; extreme values may be limits of the assay
HepG2 [2] = test: as above
Calu-3 [3] = test: as above
U2OS [4] = test: as above
Vero E6 [5] = test: as above
Caco-2 [6] = test: relative viability EC50 (midpoint between 100% and the lowest measured viability); higher = less toxic
HepG2 [7] = test: as above
Calu-3 [8] = test: as above
U2OS [9] = test: as above
Vero E6 [10] = test: as above
Caco-2 [11] = test: cell viability relative to DMSO; higher = less toxic
HepG2 [12] = test: as above
Calu-3 [13] = test: as above
U2OS [14] = test: as above
Vero E6 [15] = test: as above

Structure (SMILES)	drug sensitivity score (Caco-2 [1])	drug sensitivity score (HepG2 [2])	drug sensitivity score (Calu-3 [3])	drug sensitivity score (U2OS [4])	drug sensitivity score (Vero E6 [5])	relative viability EC50 (Caco-2 [6]) [µM]	relative viability EC50 (HepG2 [7]) [µM]	relative viability EC50 (Calu-3 [8]) [µM]	relative viability EC50 (U2OS [9]) [µM]	relative viability EC50 (Vero E6 [10]) [µM]	cell viability (Caco-2 [11]; 1 nM) [%]	cell viability (Caco-2 [11]; 10 nM) [%]	cell viability (Caco-2 [11]; 100 nM) [%]	cell viability (Caco-2 [11]; 1000 nM) [%]	cell viability (Caco-2 [11]; 10000 nM) [%]	cell viability (HepG2 [12]; 1 nM) [%]	cell viability (HepG2 [12]; 10 nM) [%]	cell viability (HepG2 [12]; 100 nM) [%]	cell viability (HepG2 [12]; 1000 nM) [%]	cell viability (HepG2 [12]; 10000 nM) [%]	cell viability (Calu-3 [13]; 1 nM) [%]	cell viability (Calu-3 [13]; 10 nM) [%]	cell viability (Calu-3 [13]; 100 nM) [%]	cell viability (Calu-3 [13]; 1000 nM) [%]	cell viability (Calu-3 [13]; 10000 nM) [%]	cell viability (U2OS [14]; 1 nM) [%]	cell viability (U2OS [14]; 10 nM) [%]	cell viability (U2OS [14]; 100 nM) [%]	cell viability (U2OS [14]; 1000 nM) [%]	cell viability (U2OS [14]; 10000 nM) [%]	cell viability (Vero E6 [15]; 1 nM) [%]	cell viability (Vero E6 [15]; 10 nM) [%]	cell viability (Vero E6 [15]; 100 nM) [%]	cell viability (Vero E6 [15]; 1000 nM) [%]	cell viability (Vero E6 [15]; 10000 nM) [%]
C[C@H](N)C(=O)N[C@@H](CCC(N)=O)C(=O)O [dipeptamin]	0	0	0	0	0	> 10	> 10	> 10	> 10	> 10	97.4	104	96.5	95.2	110	104	93.2	95.5	100	96.1	101	98.9	94.7	95.1	103	95.9	106	98.6	103	98.9	99.5	98.1	94.1	98	95.4
CCCCC[C@H](O)/C=C/[C@H]1[C@H](O)CC(=O)[C@@H]1C/C=C\CCCC(=O)O [dinoprostone]	0	0	0	0	0	> 10	> 10	> 10	> 10	> 10	101	104	101	102	95.2	99.8	104	90.4	103	99	96.3	90	90.2	94	94.8	101	98.2	102	98.5	98.3	101	107	101	103	94.9
CCCc1nc(C)c2c(=O)nc(-c3cc(S(=O)(=O)N4CCN(CC)CC4)ccc3OCC)[nH]n12 [vardenafil]	0	0	0	0	0	> 10	> 10	> 10	> 10	> 10	95.7	93	101	104	99.9	98.7	100	96.4	101	89.8	105	88.8	99.5	96.5	101	102	98.1	103	99.1	99.5	100	107	102	106	99.6
NC1=N[C@@](c2cccc(-c3cncnc3)c2)(c2ccnc(C(F)F)c2)c2cccc(F)c21 [AZD3839]	0	0	0	0	0	> 10	> 10	> 10	> 10	> 10	107	102	101	96.1	97	108	103	106	118	97.3	102	98.4	99.7	98.7	109	95.4	99	106	97.9	94.5	110	106	99.9	102	104
CS(=O)(=O)c1ccc(-c2cc(Br)sc2-c2ccc(F)cc2)cc1 [DUP-697]	0	0.4	0	0	0	> 10	> 10	> 10	> 10	> 10	110	95.1	102	104	88.2	103	107	105	104	79.5	97.2	98	103	112	114	103	98.1	103	105	104	95.6	101	93.4	96.5	97.8
CN1CCN(c2cc3c(cc2F)c(=O)c(C(=O)O)cn3-c2ccc(F)cc2)CC1 [difloxacin]	0	0	0	0	0	> 10	> 10	> 10	> 10	> 10	92.5	95.1	102	94.7	91.1	93.6	110	105	103	93.7	105	90.1	95.2	98.6	108	92	95.4	98.9	99.1	104	109	101	96.7	106	99.1
Cc1cc(NC(=O)C2=C(O)c3ccccc3S(=O)(=O)N2C)no1 [isoxicam]	0	0	0	0	0	> 10	> 10	> 10	> 10	> 10	99.4	94.8	97.9	96.2	109	101	84.5	87.3	103	100	113	109	97.7	98.1	104	95.2	101	98.4	105	98.3	95.3	94.1	102	102	106
CC1(C)CC(=O)c2c(C(F)(F)F)nn(-c3ccc(C(N)=O)c(N[C@H]4CC[C@H](O)CC4)c3)c2C1 [SNX-2112]	17.3	30.4	18.6	26.1	10.5	0.0844	0.0313	0.0505	0.0659	0.639	95.2	102	59.3	34.4	32.7	108	96.3	3.7	0.4	1.1	99.9	103	44.6	35.7	35.1	100	102	27.1	2.7	1.6	95.3	101	99.8	44.9	26.9
Nc1ccc(S(=O)(=O)Nc2ccc(Cl)nn2)cc1 [sulfachlorpyridazine]	0	0	0	0	0	> 10	> 10	> 10	> 10	> 10	99.6	93.4	94.8	106	106	93	105	105	108	107	109	91	98.5	104	109	98.8	93	100	102	103	97.8	95.3	101	97.1	103
NC(=O)c1cc([N+](=O)[O-])cc([N+](=O)[O-])c1 [nitromide]	0	0	0	0	0	> 10	> 10	> 10	> 10	> 10	97.5	95.2	95.8	104	104	112	95.1	99.7	119	104	93.9	101	95	105	112	100	98.4	101	96.5	107	98.3	96.6	93.6	94.5	108
CN(Cc1cc(Br)cc(Br)c1N)C1CCCCC1 [bromhexine]	0	0	0	0	0	> 10	> 10	> 10	> 10	> 10	96.2	109	100	97.9	94.6	99.2	108	107	97.9	108	92	90.7	95.1	90.9	95.4	98.9	105	96.3	99.5	98.2	110	97.9	106	102	103
COc1cccc(N(C)C(=S)Oc2ccc3c(c2)CCCC3)n1 [liranaftate]	0	0	0	0	0	> 10	> 10	> 10	> 10	> 10	97.4	97.7	96.2	109	97.5	105	97.7	101	100	110	96.9	98.4	102	105	97.6	97.2	98.3	95.5	96.6	95.8	97.2	99.4	99.6	95.2	99.3
Cc1nc2ccc(NC(=O)Nc3ccnc4cccnc34)cc2o1	1.6	0.8	0	0	0	> 10	> 10	> 10	> 10	> 10	94.9	92.2	98	89.6	76.1	98.9	102	94.7	92.8	80.7	102	103	94.5	92.7	90.3	101	93	99.3	96.4	96.4	97.6	98.8	90.9	102	93.2
CO/N=C(\C(=O)N[C@@H]1C(=O)N2C(C(=O)[O-])=C(C[n+]3ccn4ncccc43)CS[C@H]12)c1nsc(N)n1 [cefozopran]	0	0	0	0	0	> 10	> 10	> 10	> 10	> 10	93.7	97.9	96.5	96.7	99	89.7	90	88.8	104	102	102	104	93.6	104	118	97	97.7	102	107	104	92.7	99.9	94	98.7	109
